Experiments:
KLK2 [1] = assay: qRT-PCR of AR-regulated gene KLK2; format: cell-based; settings: 24 hours; VCaP, LAPC-4, LNCaP, CWR-R1 and 22rv1 cells
KLK2 [2] = assay: Western blot of AR-regulated protein expression; format: cell-based; settings: CaP cell lines
ARE-luciferase = ARE-luciferase transactivation; format: cell-based
[3] = test system: 293 human kidney cell line; assay: MTT cell growth, 293; format: cell-based; settings: non-CaP cell line
LNCaP cells = assay: MTT cell growth, LNCaP; format: cell-based; settings: six days; data not shown
PC-3 cells = assay: MTT cell growth, AR-negative PC-3; format: cell-based; settings: six days, 20 nM
Description: (§1) Identification of a 3α-oxidoreductase inhibitors: Various non-steroidal compounds were tested for anti-neoplastic activity by screening against PC-3 CaP cells. Coumarin-labeled androgens were developed to track changes in androgen metabolism pathways in response to castration or androgen metabolism inhibition using in vitro and in vivo CaP cell models.
(§2) VCaP, CWR-R1 and PC-3 cells were treated for six days with complete culture media (CM), serum-free culture media (SFM), bicalutamide (Bic) at 10 μM, the coumarin C at 20 μM, DHT at 10 nM, DHT-17C at 20 nM and DHT-3C at 20 nM (FIG. 20). […] MTT analysis was performed to compare cell growth impairment of VCaP cells treated with DHT-17C versus enzalutamide. Cells were treated with DHT-17C at 1 nM, 12 nM, 20 nM, 50 nM or 100 nM concentrations, or enzalutamide at 1 μM, 12 μM, 20 μM, 50 μM or 100 μM concentrations. […] MTT performed using ezanlutamide (20 uM) or DHT-17C (50 nM) treated mutant AR and AR-V7 positive CWR-R1 cells supported VCaP MTT data (FIG. 22).

VCaP cells = assay: MTT cell growth, VCaP; format: cell-based
Description: as §1, §2

AR-GFP [4] = target: T1, AR-GFP (Homo sapiens, UniProt P10275); format: cell-based; settings: DHT-17C versus enzalutamide
T1 construct: expressed in transfected cells; host or cells: VCaP, PC-3 (also LAPC-4, CWR-R1, 22Rv1, DU145)
T1 sequence (P10275 1-920): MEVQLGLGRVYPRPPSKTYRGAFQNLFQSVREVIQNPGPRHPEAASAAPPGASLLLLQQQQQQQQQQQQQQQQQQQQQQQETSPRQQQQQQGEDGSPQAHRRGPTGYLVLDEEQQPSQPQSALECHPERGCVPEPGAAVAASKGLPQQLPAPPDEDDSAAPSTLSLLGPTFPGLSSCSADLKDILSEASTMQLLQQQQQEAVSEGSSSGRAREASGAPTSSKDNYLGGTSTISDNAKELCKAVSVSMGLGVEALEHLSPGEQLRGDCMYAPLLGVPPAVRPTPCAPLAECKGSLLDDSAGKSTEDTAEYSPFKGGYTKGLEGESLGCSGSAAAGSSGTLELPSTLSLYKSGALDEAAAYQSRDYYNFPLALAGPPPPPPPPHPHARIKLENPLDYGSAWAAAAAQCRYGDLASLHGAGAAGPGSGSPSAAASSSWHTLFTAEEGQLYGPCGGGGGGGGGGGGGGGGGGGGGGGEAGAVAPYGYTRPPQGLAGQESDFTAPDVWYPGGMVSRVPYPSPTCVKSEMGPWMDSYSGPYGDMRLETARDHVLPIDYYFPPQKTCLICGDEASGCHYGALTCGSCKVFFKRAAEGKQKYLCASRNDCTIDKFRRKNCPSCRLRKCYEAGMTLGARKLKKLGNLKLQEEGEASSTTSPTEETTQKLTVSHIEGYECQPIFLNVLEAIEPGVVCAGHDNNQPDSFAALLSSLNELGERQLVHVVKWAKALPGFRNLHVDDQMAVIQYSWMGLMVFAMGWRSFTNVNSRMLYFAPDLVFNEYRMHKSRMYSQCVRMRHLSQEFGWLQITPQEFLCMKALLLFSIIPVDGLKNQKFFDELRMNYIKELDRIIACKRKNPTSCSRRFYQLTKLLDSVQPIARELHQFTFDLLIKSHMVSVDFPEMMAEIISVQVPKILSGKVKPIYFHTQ
Description: (§4) ImageStream was used to perform competition studies between DHT-17C and enzalutamide for AR-GFP or AR-V2 to establish that DHT-17C targets the AR-LBD.

AR-GFP [5] = target: T1, AR-GFP; assay: ImageStream nuclear co-localization with AR-GFP; format: cell-based; settings: VCaP-AR-GFP and PC-3-AR-GFP cells
Excerpt: Androgen-sensitive AR-positive LAPC-4 and VCaP, castration-recurrent and AR-positive CWR-R1 and CWR-22rv1 (22rv1), and AR-negative PC-3 and DU145 cells were transfected with either an empty pCMV expression plasmid (control) or a pCMV plasmid that encoded a wild-type AR tagged with a C-terminal green fluorescent protein (GFP; AR-GFP). AR-positive CaP cell lines were transfected with AR-GFP to assess if DHT-17C or DHT-3C co-localized with AR and translocated to the nucleus.
AR positive CaP cell lines were treated for 16 hours with androgen-free, serum-free complete media (SFM) alone, or SFM that contained 20 nM or 50 nM fluorescent-androgens or C alone. The time points were chosen to measure differences in uptake of the fluorescent-androgens and nuclear or cytosolic localization of the fluorescent-androgens and/or AR-GFP.
Serum-free complete media (SFM)^2 was used to androgen deprive cells.

AR-V2-GFP = target: T2, AR-V2-GFP (Homo sapiens, UniProt P10275); assay: ImageStream co-localization with AR-V2-GFP; format: cell-based; settings: VCaP and PC-3 cells that stably expressed AR-V2-GFP
T2 construct: stably expressed AR170 LBD only with splice variant V2 (AR-V2-GFP); expressed in transfected cells; host or cells: VCaP, PC-3
T2 sequence (P10275 1-388 isoform P10275-2): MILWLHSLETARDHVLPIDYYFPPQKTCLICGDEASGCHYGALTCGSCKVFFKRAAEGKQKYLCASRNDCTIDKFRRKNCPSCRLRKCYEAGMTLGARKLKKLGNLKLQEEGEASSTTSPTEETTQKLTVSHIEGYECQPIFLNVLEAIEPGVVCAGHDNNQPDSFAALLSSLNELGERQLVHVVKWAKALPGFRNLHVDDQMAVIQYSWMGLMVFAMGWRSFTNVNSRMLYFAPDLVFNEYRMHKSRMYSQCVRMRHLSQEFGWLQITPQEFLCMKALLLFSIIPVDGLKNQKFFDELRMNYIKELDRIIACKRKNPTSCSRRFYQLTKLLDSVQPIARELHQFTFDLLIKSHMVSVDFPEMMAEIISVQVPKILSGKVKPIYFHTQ
Description: ImageStream studies were repeated using VCaP and PC-3 cells that stably expressed AR-V2 (splice-variant that lacked the N-terminus) with C-terminal GFP (AR-V2-GFP). […] ImageStream data was confirmed using immunoprecipation (IP) studies performed with a DHT-targeted antibody.
Serum-free complete media (SFM)^2 was used to androgen deprive cells. PC-3 cells that contained empty plasmid were treated with SFM alone, SFM with C or SFM with DHT-3C.

AR-V2 = target: T3, AR-V2 (Homo sapiens, UniProt P10275); format: cell-based; settings: DHT-17C versus enzalutamide
T3 construct: stably expressed AR170 LBD only with splice variant V2 (AR-V2-GFP); expressed in transfected cells; host or cells: VCaP, PC-3
T3 sequence (P10275 1-388 isoform P10275-2): T2 sequence (P10275 1-388 isoform P10275-2)
Description: as §4

CWR-R1 cells = assay: MTT cell growth, CWR-R1; format: cell-based, human; settings: six days
Description: as §1, §2

DU145 cells = assay: MTT cell growth, DU145; format: cell-based; settings: AR-negative
LAPC-4 cells = assay: MTT cell growth, LAPC-4; format: cell-based; settings: six days; data not shown
22Rv1 cells = assay: MTT cell growth, 22Rv1; format: cell-based; settings: six days; data not shown
[6] = test system: CV-1 monkey kidney cell line; assay: MTT cell growth, CV-1; format: cell-based; settings: non-CaP cell line
RDH16-YFP [7] = target: T4, RDH16-YFP (Homo sapiens, UniProt O75452); assay: ImageStream competition for RDH16-YFP; format: cell-based; settings: PC-3 cells that stably expressed RDH16-YFP
T4 construct: expressed in transfected cells; host or cells: PC-3
T4 sequence (O75452 1-317): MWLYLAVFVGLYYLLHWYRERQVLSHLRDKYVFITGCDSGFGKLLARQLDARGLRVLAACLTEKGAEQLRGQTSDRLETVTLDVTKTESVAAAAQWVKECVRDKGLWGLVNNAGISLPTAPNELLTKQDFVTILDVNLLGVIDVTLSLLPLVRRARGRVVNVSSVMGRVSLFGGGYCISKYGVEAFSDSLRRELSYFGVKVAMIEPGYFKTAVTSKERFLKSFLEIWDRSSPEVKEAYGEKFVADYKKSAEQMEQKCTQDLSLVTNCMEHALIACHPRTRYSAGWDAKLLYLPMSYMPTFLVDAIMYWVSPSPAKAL
Description: (§3) ImageStream (ImageStream^X-MKII Flow Cytometer [Amnis, Seattle, WA]) is a hybrid technique that combines the statistical power of flow cytometry and the imaging capability of fluorescence microscopy that was adapted to study simultaneously DIOL-17C compartmental localization and activity. ImageStream data were normalized against single-stained controls and analyzed using Image Data Exploration and Analysis Software (IDEAS; Amnis). The similarity score was measured by comparing two images of the same cell pixel by pixel. If the similarity score was >0, the two objects (RDH16-YFP and DIOL-17C) were co-localized.

RDH16-YFP [8] = target: T4, RDH16-YFP; assay: ImageStream co-localization with RDH16-YFP; format: cell-based; settings: PC-3-RDH16-YFP cells
Description: as §3

3α-oxidoreductase = assay: LC-MS/MS of CaP cells treated with DIOL-17C; format: in vitro ADME

C[C@]12CCC(=O)C[C@@H]1CC[C@@H]1[C@@H]2CC[C@]2(C)[C@@H](O)CC[C@@H]12 [DHT, 5α-dihydrotestosterone, reference compound]
KLK2 transcript induction (KLK2 [1]): produced similar inductions of expression | AR-regulated protein expression levels (KLK2 [2]): produced similar AR-regulated protein expression levels | ARE-luciferase signal (ARE-luciferase): produced ARE-luciferase signal

C[C@]12CCC3C(CC[C@H]4CC(=O)CC[C@]34C)C1CC[C@@H]2OCC(=O)NCCc1cc(=O)oc2c3c4c(cc12)CCCN4CCC3 (stereo partly drawn) [DHT-17C, N-2′-(2,3,4,5-Tetrahydro-1H,4H-10-keto-11-oxa-3α-azabenzo[de]anthracenyl)ethyl (3-keto-5α-androstan-17β-yl)glycolamide]
293 cell growth (MTT) [3]: did not impair cell growth | LNCaP cell growth (MTT) (LNCaP cells): produced similar responses | KLK2 transcript induction (KLK2 [1]): did not induce KLK2 transcript formation | PC-3 cell growth (MTT) (PC-3 cells): did not impair cell growth | dose lower than enzalutamide for VCaP growth inhibition (VCaP cells; DHT-17C 20 nM vs enzalutamide 20 μM, AR-V7 positive VCaP): 1000 × | VCaP cell growth impairment versus enzalutamide (VCaP cells; DHT-17C at 1, 12, 20, 50 or 100 nM): impaired VCaP cell growth to similar extents as enzalutamide | VCaP cell growth (MTT) (VCaP cells; six days, DHT-17C at 20 nM, DHT-3C at 20 nM): impaired VCaP and CWR-R1 cell growth | VCaP cell growth, combination with bicalutamide (VCaP cells; six days, bicalutamide 10 μM, p-values<0.05): enhanced the effect of bicalutamide | competition for the AR-LBD of wild-type AR (AR-GFP [4]): compete for the AR-LBD of wild-type AR and AR-V2 | nuclear co-localization with AR-GFP and DRAQ5 (AR-GFP [5]): co-localized with AR-GFP | co-localization with AR-V2-GFP (AR-V2-GFP): co-localized with DRAQ5 and AR-V2-GFP | competition for the AR-LBD of AR-V2 (AR-V2): compete for the AR-LBD of wild-type AR and AR-V2 | CWR-R1 cell growth (MTT) (CWR-R1 cells; DHT-17C at 20 nM, DHT-3C at 20 nM): impaired VCaP and CWR-R1 cell growth | CWR-R1 cell growth, combination with bicalutamide (CWR-R1 cells; bicalutamide 10 μM, p-values<0.05): enhanced the effect of bicalutamide | DU145 cell growth (MTT) (DU145 cells): did not impair cell growth | LAPC-4 cell growth (MTT) (LAPC-4 cells): produced similar responses | 22Rv1 cell growth (MTT) (22Rv1 cells): produced similar responses | CV-1 cell growth (MTT) [6]: did not impair cell growth

C[C@]12CC[C@@H](O)C[C@@H]1CC[C@@H]1[C@@H]2CC[C@]2(C)[C@@H](O)CC[C@@H]12 [DIOL, 5α-androstane-3α,17β-diol, reference compound]
competition for RDH16-YFP (RDH16-YFP [7]): compete for RDH16-YFP | ARE-luciferase signal (ARE-luciferase): produced ARE-luciferase signal

C[C@]12CCC3C(CC[C@H]4C[C@H](O)CC[C@]34C)C1CC[C@@H]2OCC(=O)NCCc1cc(=O)oc2c3c4c(cc12)CCCN4CCC3 (stereo partly drawn) [DIOL-17C, N-2′-(2,3,4,5-Tetrahydro-1H,4H-10-keto-11-oxa-3α-azabenzo[de]anthracenyl)ethyl (3α-hydroxy-5α-androstan-17β-yl)glycolamide]
CaP cell growth (MTT) (VCaP cells; 20 nM, 6 days in SFM, FIG. 14 VCaP): impaired CaP cell growth | competition for RDH16-YFP (RDH16-YFP [7]): compete for RDH16-YFP | co-localization with RDH16-YFP and DRAQ5 in the nucleus (RDH16-YFP [8]): co-localized with RDH16-YFP | 3α-oxidoreductase metabolism to DHT-17C (3α-oxidoreductase): did not impair 3α-oxidoreductase metabolism of DIOL-17C to DHT-17C | free DIOL and orphan coumarin produced by cells (3α-oxidoreductase): No orphan fluorophores were detected

— patent publication US12337004B2, “Coumarin-modified androgens for the treatment of prostate cancer” (Health Research, Inc., priority 2019, dated 2025)
